Test results as given in ChEMBL document CHEMBL1151088 (1996).
Converted amounts (≈) assume the structure as drawn.

How the values were obtained:
Assay type in all cases: functional
Staphylococcus aureus [1] = assay: In vitro antimicrobial activity against penicillin sensitive Staphylococcus aureus 663.
Staphylococcus aureus [2] = assay: In vitro antimicrobial activity against penicillin resistant Staphylococcus aureus 853.
Staphylococcus aureus [3] = assay: In vitro antimicrobial activity against methicillin resistant Staphylococcus aureus 1131.
[4] = test system: Staphylococcus epidermidis; assay: In vitro antimicrobial activity against Staphylococcus epidermidis.
Escherichia coli = assay: In vitro antimicrobial activity against Escherichia coli 182+PMBN.
Saccharomyces cerevisiae = assay: In vitro antimicrobial activity against Saccharomyces cerevisiae.
Acholeplasma laidlawii = assay: In vitro antimicrobial activity against Acholeplasma laidlawii.
Bacillus cereus = assay: In vitro antimicrobial activity against Bacillus cereus.
Candida albicans = assay: In vitro antimicrobial activity against Candida albicans.

SMILES | MIC (Staphylococcus aureus [1]) [µg/mL] | MIC (Staphylococcus aureus [2]) [µg/mL] | MIC (Staphylococcus aureus [3]) [µg/mL] | MIC [4] [µg/mL] | MIC (Escherichia coli) [µg/mL] | MIC (Saccharomyces cerevisiae) [µg/mL] | MIC (Acholeplasma laidlawii) [µg/mL] | MIC (Bacillus cereus) [µg/mL] | MIC (Candida albicans) [µg/mL]
CCCOc1c2cccc1Cc1cc3cc(c1OCCC)Cc1cccc(c1OCCC)Cc1cc(cc(c1OCCC)C2)C(=O)N[C@@H](C)C(=O)NCCN(C(=O)OC(C)(C)C)CCNC(=O)[C@H](C)NC3=O | 64 (≈ 64.6 µM) | > 64 | 64 (≈ 64.6 µM) | 32 (≈ 32.3 µM) | – | – | – | – | –
CCCOc1c2cccc1Cc1cc3cc(c1OCCC)Cc1cccc(c1OCCC)Cc1cc(cc(c1OCCC)C2)C(=O)N[C@H](C)C(=O)NCCNCCNC(=O)[C@@H](C)NC3=O | 8 (≈ 8.99 µM) | 8 (≈ 8.99 µM) | 4 (≈ 4.49 µM) | 8 (≈ 8.99 µM) | – | – | – | – | –
CCCOc1c2cccc1Cc1cc3cc(c1OCCC)Cc1cccc(c1OCCC)Cc1cc(cc(c1OCCC)C2)C(=O)N[C@@H](C)C(=O)NCCNCCNC(=O)[C@H](C)NC3=O | 8 (≈ 8.99 µM) | 16 (≈ 18 µM) | 4 (≈ 4.49 µM) | 4 (≈ 4.49 µM) | 32 (≈ 35.9 µM) | > 128 | > 128 | 16 (≈ 18 µM) | > 128
CCCOc1c2cccc1Cc1cc3cc(c1OCCC)Cc1cccc(c1OCCC)Cc1cc(cc(c1OCCC)C2)C(=O)N[C@@H](C)C(=O)N[C@@H](C)C(=O)NCCNCCNC(=O)[C@H](C)NC(=O)[C@@H](C)NC3=O [VANCOMYCIN MIMIC] | 32 (≈ 31 µM) | 32 (≈ 31 µM) | 32 (≈ 31 µM) | 32 (≈ 31 µM) | – | – | – | – | –
CN[C@H](CC(C)C)C(=O)N[C@H]1C(=O)N[C@@H](CC(N)=O)C(=O)N[C@H]2C(=O)N[C@H]3C(=O)N[C@H](C(=O)N[C@H](C(=O)O)c4cc(O)cc(O)c4-c4cc3ccc4O)[C@H](O)c3ccc(c(Cl)c3)Oc3cc2cc(c3O[C@@H]2O[C@H](CO)[C@@H](O)[C@H](O)[C@H]2O[C@H]2C[C@](C)(N)[C@H](O)[C@H](C)O2)Oc2ccc(cc2Cl)[C@H]1O [VANCOMYCIN] | – | – | – | – | – | > 128 | > 128 | 2 (≈ 1.38 µM) | > 128
